Data from paper PMC11345841, “Exploring 2-Sulfonylpyrimidine Warheads as Acrylamide Surrogates for Targeted Covalent Inhibition: A BTK Story” (Journal of Medicinal Chemistry, 2024).
Like-named read-outs stand apart in the source and are kept apart here.

Legend:
[1] = biological target: T1, EGFR (Homo sapiens, UniProt P00533); experiment: KINOMEscan ScanTK; assay type: binding; details: for difference in %Control versus reference compound Ib at 1 µM / remaining binding at 1 µM: EGFR; for inhibition at 1 µM: ScanTK, WT EGFR
T1 construct: purchased Eurofins DiscoverX KINOMEscan (scanTK)
T1 sequence (P00533 25-1210): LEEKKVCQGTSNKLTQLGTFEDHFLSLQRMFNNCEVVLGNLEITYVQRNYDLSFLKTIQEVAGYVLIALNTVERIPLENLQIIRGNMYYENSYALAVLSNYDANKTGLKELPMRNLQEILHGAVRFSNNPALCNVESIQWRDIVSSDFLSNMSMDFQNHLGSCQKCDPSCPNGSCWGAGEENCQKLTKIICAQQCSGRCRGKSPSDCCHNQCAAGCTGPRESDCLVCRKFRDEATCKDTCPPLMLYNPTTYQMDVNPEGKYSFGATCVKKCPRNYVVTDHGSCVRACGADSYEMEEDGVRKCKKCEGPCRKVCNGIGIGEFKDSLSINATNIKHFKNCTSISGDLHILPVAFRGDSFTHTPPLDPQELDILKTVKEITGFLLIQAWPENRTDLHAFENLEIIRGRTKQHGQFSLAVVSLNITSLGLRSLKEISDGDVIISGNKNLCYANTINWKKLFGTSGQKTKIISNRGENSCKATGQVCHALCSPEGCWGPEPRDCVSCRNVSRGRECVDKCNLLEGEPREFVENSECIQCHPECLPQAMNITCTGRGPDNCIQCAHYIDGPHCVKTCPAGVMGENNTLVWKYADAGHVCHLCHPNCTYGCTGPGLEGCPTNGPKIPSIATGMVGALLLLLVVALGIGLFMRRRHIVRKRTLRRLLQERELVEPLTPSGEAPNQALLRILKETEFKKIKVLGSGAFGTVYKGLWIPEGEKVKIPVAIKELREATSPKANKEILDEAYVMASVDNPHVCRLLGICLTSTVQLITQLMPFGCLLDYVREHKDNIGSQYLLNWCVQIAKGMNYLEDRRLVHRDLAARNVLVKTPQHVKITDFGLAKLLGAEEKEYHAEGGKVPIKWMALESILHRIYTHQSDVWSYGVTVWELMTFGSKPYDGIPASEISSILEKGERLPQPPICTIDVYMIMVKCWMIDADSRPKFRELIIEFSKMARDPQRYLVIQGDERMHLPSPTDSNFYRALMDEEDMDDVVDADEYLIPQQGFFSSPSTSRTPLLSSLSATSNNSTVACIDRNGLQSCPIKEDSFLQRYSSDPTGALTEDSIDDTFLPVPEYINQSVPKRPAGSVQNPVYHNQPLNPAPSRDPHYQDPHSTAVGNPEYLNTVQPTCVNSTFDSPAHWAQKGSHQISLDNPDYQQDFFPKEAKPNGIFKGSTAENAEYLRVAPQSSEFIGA

[2] = biological target: T2, LCK (Homo sapiens, UniProt P06239); experiment: KINOMEscan ScanTK; assay type: binding
T2 construct: purchased Eurofins DiscoverX KINOMEscan (scanTK)
T2 sequence (P06239 whole entry): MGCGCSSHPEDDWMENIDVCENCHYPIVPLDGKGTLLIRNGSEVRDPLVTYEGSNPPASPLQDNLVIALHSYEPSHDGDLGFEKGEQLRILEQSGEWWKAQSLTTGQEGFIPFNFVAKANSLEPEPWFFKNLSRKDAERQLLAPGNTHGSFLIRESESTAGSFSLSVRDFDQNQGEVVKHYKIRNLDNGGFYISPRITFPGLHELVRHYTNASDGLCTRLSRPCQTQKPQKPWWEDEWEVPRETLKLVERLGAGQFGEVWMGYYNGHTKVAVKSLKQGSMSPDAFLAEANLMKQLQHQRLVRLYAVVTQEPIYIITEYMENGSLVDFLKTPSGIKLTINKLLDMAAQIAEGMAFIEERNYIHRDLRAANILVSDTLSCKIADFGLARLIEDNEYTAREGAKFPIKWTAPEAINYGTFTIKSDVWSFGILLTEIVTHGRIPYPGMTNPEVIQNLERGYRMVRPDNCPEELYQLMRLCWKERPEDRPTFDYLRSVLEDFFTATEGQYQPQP

[3] = biological target: T3, PDGFRA (Homo sapiens, UniProt P16234); experiment: KINOMEscan ScanTK; assay type: binding
T3 construct: purchased Eurofins DiscoverX KINOMEscan (scanTK)
T3 sequence (P16234 24-1089): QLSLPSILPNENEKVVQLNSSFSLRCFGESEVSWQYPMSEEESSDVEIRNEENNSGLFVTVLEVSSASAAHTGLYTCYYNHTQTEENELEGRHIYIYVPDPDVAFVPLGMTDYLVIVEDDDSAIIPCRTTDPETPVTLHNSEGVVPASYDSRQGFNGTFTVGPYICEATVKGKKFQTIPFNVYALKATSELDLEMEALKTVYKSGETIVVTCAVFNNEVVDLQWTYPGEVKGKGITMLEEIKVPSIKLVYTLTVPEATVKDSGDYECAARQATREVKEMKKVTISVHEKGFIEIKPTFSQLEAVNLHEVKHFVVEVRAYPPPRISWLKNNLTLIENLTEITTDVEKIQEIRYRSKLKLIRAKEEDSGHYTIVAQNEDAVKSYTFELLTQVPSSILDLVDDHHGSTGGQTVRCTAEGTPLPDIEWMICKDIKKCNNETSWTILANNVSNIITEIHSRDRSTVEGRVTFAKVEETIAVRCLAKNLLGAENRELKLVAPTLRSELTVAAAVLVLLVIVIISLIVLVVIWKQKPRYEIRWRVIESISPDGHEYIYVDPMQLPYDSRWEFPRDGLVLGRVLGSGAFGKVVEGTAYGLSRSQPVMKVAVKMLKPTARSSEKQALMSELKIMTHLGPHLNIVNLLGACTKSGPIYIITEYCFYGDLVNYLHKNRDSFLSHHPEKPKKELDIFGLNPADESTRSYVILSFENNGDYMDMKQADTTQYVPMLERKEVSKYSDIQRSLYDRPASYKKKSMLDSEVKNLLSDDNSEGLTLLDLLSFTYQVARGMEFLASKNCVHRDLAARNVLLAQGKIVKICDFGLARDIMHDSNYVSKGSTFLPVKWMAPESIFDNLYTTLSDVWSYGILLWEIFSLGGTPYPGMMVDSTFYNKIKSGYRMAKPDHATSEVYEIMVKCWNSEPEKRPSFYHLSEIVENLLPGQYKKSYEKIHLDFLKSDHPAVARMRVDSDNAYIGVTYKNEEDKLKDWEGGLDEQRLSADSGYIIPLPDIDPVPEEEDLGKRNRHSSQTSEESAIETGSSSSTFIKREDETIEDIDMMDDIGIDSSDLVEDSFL

[4] = system: OCI-LY7 cells; experiment: Anti-IgM-induced Ca2+ flux assay; assay type: cell-based, human; details: 1 h pretreatment, 1000 nM or lower concentrations
Procedure: The effects of compounds on Ca^2+ release were then analyzed following treatment of OCI-LY7 cells (derived from a diffuse large B-cell lymphoma (DLBCL)) with anti-IgM to cross-link surface IgM (sIgM). […] For 8a and 8d, we performed similar experiments at lower concentrations.
Flow cytometry was performed using a FACS Canto II system (BD Biosciences). Data was acquired for 30 s before cells were stimulated with goat antihuman F(ab’)2 anti-IgM and data were acquired for a further 3.5 min. Cells were then treated with ionomycin (1 μM; Merck) and data were acquired for 2 min. Calcium responses were quantified by calculating area under the curve (AUC) in FlowJo (Becton Dickinson) from the point of addition of anti-IgM to the addition of ionomycin.

[5] = Electrophilic reactivity assessment (GSH assay); details: for stability/reactivity with 10-fold excess of GSH in PBS: up to 6 h at 20 °C, LC-MS
[6] = biological target: T4, EPHB6 (Homo sapiens, UniProt O15197); experiment: KINOMEscan ScanTK; assay type: binding
T4 construct: purchased Eurofins DiscoverX KINOMEscan (scanTK)
T4 sequence (O15197 32-1021): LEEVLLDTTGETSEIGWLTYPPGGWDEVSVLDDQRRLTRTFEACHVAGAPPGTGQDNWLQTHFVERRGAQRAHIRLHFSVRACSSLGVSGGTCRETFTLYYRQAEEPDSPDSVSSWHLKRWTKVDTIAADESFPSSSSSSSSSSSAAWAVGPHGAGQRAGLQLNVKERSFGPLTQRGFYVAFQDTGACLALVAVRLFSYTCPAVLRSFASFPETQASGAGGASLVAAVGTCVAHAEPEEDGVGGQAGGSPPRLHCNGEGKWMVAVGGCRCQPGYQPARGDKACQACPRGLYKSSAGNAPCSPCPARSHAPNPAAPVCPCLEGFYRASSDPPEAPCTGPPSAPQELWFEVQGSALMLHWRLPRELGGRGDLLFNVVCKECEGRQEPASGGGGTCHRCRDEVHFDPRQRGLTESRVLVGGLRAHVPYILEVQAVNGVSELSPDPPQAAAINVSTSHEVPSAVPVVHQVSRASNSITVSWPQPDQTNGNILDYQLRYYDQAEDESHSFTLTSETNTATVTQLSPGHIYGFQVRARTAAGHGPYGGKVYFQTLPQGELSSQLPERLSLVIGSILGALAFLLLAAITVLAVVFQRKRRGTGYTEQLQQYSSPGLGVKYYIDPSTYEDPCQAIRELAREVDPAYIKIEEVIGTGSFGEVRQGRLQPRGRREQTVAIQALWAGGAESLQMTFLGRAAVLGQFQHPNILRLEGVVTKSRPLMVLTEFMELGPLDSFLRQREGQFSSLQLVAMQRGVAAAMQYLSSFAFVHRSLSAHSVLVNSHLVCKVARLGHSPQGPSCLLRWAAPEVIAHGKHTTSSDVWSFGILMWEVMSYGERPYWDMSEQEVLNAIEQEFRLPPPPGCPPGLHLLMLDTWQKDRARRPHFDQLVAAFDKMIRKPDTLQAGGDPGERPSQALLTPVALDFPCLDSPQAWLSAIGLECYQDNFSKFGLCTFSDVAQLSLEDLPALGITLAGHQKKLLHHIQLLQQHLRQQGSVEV

[7] = system: full-length wild-type BTK; experiment: Intact protein mass spectrometry, covalent modification; assay type: binding; details: 2:1 ratio of compound to protein (40 μM/20 μM), 23 °C
[8] = biological target: T5, BLK (Homo sapiens, UniProt P51451); experiment: KINOMEscan ScanTK; assay type: binding; details: for difference in %Control vs reference Ib at 1 µM / remaining binding at 1 µM: BLK; for difference in %Control vs reference Ib at 1 µM: read-out: % difference (compound - Ib %Control)
T5 construct: purchased Eurofins DiscoverX KINOMEscan (scanTK)
T5 sequence (P51451 whole entry): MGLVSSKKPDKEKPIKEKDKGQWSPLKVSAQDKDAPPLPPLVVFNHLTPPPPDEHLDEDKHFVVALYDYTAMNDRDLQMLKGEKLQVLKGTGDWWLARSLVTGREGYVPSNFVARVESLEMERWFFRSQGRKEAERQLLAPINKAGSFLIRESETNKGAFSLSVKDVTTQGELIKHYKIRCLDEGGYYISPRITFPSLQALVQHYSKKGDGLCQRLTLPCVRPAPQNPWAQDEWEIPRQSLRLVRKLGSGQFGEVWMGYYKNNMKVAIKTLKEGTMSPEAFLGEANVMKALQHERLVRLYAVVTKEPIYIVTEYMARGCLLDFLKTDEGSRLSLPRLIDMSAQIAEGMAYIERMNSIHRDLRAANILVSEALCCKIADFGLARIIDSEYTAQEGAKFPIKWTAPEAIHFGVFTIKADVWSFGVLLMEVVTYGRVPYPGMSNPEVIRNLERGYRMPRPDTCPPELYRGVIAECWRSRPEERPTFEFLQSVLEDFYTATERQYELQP

[9] = Plasma stability assay; assay type: in vitro ADME; details: 3 h incubation at 37 °C; 50% human plasma; 1 μM compound

| difference in %Control versus reference compound Ib at 1 µM ([1]; @1000nM) | remaining binding at 1 µM ([1]; @1000nM, read-out: %Control) | remaining binding at 1 µM ([1]; read-out: %Control @1000nM) | inhibition at 1 µM [1] | remaining binding at 1 µM ([2]; @1000nM, read-out: %Control) | remaining binding at 1 µM ([2]; read-out: %Control @1000nM) | remaining binding at 1 µM ([3]; @1000nM, read-out: %Control) | remaining binding at 1 µM ([3]; read-out: %Control @1000nM) | difference in %Control versus compound Ib at 1 µM ([6]; @1000nM) | remaining binding at 1 µM ([6]; @1000nM, read-out: %Control) | remaining binding at 1 µM ([6]; read-out: %Control @1000nM) | difference in %Control vs reference Ib at 1 µM ([8]; @1000nM) | remaining binding at 1 µM ([8]; @1000nM, read-out: %Control) | remaining binding at 1 µM ([8]; read-out: %Control @1000nM) | % compound remaining, human plasma stability [9] | SMILES | effect on anti-IgM-induced Ca2+ flux [4] | pseudo-first-order rate constant kGSH/PBS ([5]; 100 μM compound, 1 mM GSH, PBS pH 7.4, 20 °C, triplicate) | stability/reactivity with 10-fold excess of GSH in PBS [5] | covalent modification of full-length WT BTK (intact mass) [7] | inhibition at 1 µM ([8]; ScanTK, 1 μM) |
| --- | --- | --- | --- | --- | --- | --- | --- | --- | --- | --- | --- | --- | --- | --- | --- | --- | --- | --- | --- | --- |
| 42.8% | 43% | 43% | 57% | 25% | 25% | 91% | 91% | 54% | 72% | 72% | 0.15% | 0.2% | 0.2% | 20–50% | CCOC(=O)c1cnc(S(C)(=O)=O)nc1N1CCC[C@@H](n2nc(-c3ccc(Oc4ccccc4)cc3)c3c(N)ncnc32)C1 [Compound 8c, Ethyl (R)-4-(3-(4-Amino-3-(4-phenoxyphenyl)-1H-pyrazolo[3,4-d]pyrimidin-1-yl)piperidin-1-yl)-2-(methylsulfonyl)pyrimidine-5-carboxylate] | – | – | – | – | – |
| 52.8% | 53% | 53% | 47% | 2% | 2% | 72% | 72% | 6% | 24% | 24% | 0.05% | 0.1% | 0.1% | – | Cc1cnc(S(C)(=O)=O)nc1N1CCCC(n2nc(-c3ccc(Oc4ccccc4)cc3)c3c(N)ncnc32)C1 (stereo not drawn) [Compound 8a, 1-(1-(5-Methyl-2-(methylsulfonyl)pyrimidin-4-yl)piperidin-3-yl)-3-(4-phenoxyphenyl)-1H-pyrazolo[3,4-d]pyrimidin-4-amine] | maintained for these compounds at concentrations down to 250 nM | – | fully stable | – | – |
| 32.8% | 33% | 33% | 67% | 8.3% | 8.3% | 90% | 90% | -9.1% | 8.9% | 8.9% | 0.35% | 0.4% | 0.4% | 20–50% | COC(=O)c1cnc(S(C)(=O)=O)nc1N1CCCC(n2nc(-c3ccc(Oc4ccccc4)cc3)c3c(N)ncnc32)C1 (stereo not drawn) [Compound 8b, Methyl 4-(3-(4-Amino-3-(4-phenoxyphenyl)-1H-pyrazolo[3,4-d]pyrimidin-1-yl)piperidin-1-yl)-2-(methylsulfonyl)pyrimidine-5-carboxylate] | – | – | – | – | – |

| SMILES | difference in %Control versus reference compound Ib at 1 µM ([1]; @1000nM) | remaining binding at 1 µM ([1]; @1000nM, read-out: %Control) | remaining binding at 1 µM ([1]; read-out: %Control @1000nM) | inhibition at 1 µM [1] | remaining binding at 1 µM ([2]; @1000nM, read-out: %Control) | remaining binding at 1 µM ([2]; read-out: %Control @1000nM) | remaining binding at 1 µM ([3]; @1000nM, read-out: %Control) | remaining binding at 1 µM ([3]; read-out: %Control @1000nM) | difference in %Control versus compound Ib at 1 µM ([6]; @1000nM) | remaining binding at 1 µM ([6]; @1000nM, read-out: %Control) | remaining binding at 1 µM ([6]; read-out: %Control @1000nM) | difference in %Control vs reference Ib at 1 µM ([8]; @1000nM) | remaining binding at 1 µM ([8]; @1000nM, read-out: %Control) | remaining binding at 1 µM ([8]; read-out: %Control @1000nM) | % compound remaining, human plasma stability [9] | effect on anti-IgM-induced Ca2+ flux [4] | pseudo-first-order rate constant kGSH/PBS ([5]; 100 μM compound, 1 mM GSH, PBS pH 7.4, 20 °C, triplicate) | stability/reactivity with 10-fold excess of GSH in PBS [5] | covalent modification of full-length WT BTK (intact mass) [7] | inhibition at 1 µM ([8]; ScanTK, 1 μM) |
| --- | --- | --- | --- | --- | --- | --- | --- | --- | --- | --- | --- | --- | --- | --- | --- | --- | --- | --- | --- | --- |
| CNC(=O)c1cnc(S(C)(=O)=O)nc1N1CCCC(n2nc(-c3ccc(Oc4ccccc4)cc3)c3c(N)ncnc32)C1 (stereo not drawn) [Compound 8d, 4-(3-(4-Amino-3-(4-phenoxyphenyl)-1H-pyrazolo[3,4-d]pyrimidin-1-yl)piperidin-1-yl)-N-methyl-2-(methylsulfonyl)pyrimidine-5-carboxamide] | 16.8% | 17% | 17% | 83% | 4% | 4% | 78% | 78% | 16% | 34% | 34% | -0.05% | 0% | 0% | – | maintained for these compounds at concentrations down to 250 nM | 47 × 10^–5 ± 0.5 × 10^–5 s^–1 | mild reactivity | clean and quantitative modification in under an hour | – |
| C=CC(=O)N1CCC[C@@H](n2nc(-c3ccc(Oc4ccccc4)cc3)c3c(N)ncnc32)C1 [Compound 1g, Ibrutinib, reference compound] | – | – | – | – | – | – | 49% | 49% | – | 18% | 18% | – | 0.05% | 0.05% | – | – | – | – | modified full-length BTK | > 99% |
